Test: Human HepG2 cell viability assay in 384 well format
Format: toxicity, cell-based
Set-up: dose 125 nL, time 70.5 hour; cytotoxicity at 70.5 h: concentration not given beside the values
Conditions: HepG2 cells, read-out: Inhibition

Structure (SMILES) | cytotoxicity at 70.5 h [%]
COCCN1C(=O)CO[C@@H]2CN(S(=O)(=O)c3ccccc3)C[C@H]21 | 5.06
CCCS(=O)(=O)N1CCc2onc(CNc3ncccn3)c2C1 | 6.05
CCN1CCc2onc(CNc3ncccn3)c2C1 | 8.16
CCOCc1ncn2c1CN(S(=O)(=O)c1cccc(C)c1)CC2 | -1.4
Cc1nc(C)c2c(n1)CCN(Cc1ccco1)CC2 | 2.27
CC(C)NC(=O)N1CCC2(COCc3cnc(-c4ccccc4)nc32)C1 (configuration not stated) | 9.3
CNC(=O)N1CCc2cc(C(=O)NCC3CC3)c(NC(C)C)nc2CC1 | -7.34
O=C(C1CCC1)N1CCC2(COCc3cnc(-c4cccnc4)nc32)C1 (configuration not stated) | -3.5
COCC(=O)N1CCC2(COCc3cnc(-c4ccccc4)nc32)C1 (configuration not stated) | -3.58
CCS(=O)(=O)N1CCc2onc(CNc3ncccn3)c2C1 | -8.6
O=C(CC1CC1)N1CCC2(COCc3cnc(-c4ccccc4)nc32)C1 (configuration not stated) | -8.52
CCCNC(=O)c1nc2c(o1)CN(C(=O)CN(C)C)C2 | -8.52
Cc1cc(C(=O)N2C[C@@H]3COC[C@]3(c3nnc(C(C)C)o3)C2)on1 | -9.37
CCN(C)c1ncnc2c1CCN(C(=O)c1ccc(C)o1)CC2 | -11.3
Cc1nc([C@H]2C[C@H]3CN(C(=O)c4cc(C)c(C)s4)CC[C@@H]3O2)no1 | -12.1
COCc1cncc2c1CCN(C(=O)c1ccsc1)C2 | 9.92
CCn1ncc2c1C(COC)CN(S(=O)(=O)C1CC1)C2 (configuration not stated) | -8.31
CN(C)c1ncc2c(n1)C1(CCN(Cc3cccnc3)C1)COC2 (configuration not stated) | 4.89
Cc1noc(C)c1CN1CC2(CCN(C(=O)c3cc[nH]n3)C2)CC1=O (configuration not stated) | -6.88
O=C1NC2(CCN(C(=O)c3ccnnc3)CC2)CC1c1ccccc1 (configuration not stated) | 22.9
Cc1ccc(Cn2cc(Br)c(NS(C)(=O)=O)n2)cc1 | -5.3
Cc1cccc(Cn2cc(Br)c(NS(C)(=O)=O)n2)c1 | -6.39
CCn1cc(CNC(=O)CC(C)C)cn1 | 3.41

Structure (SMILES) | cytotoxicity at 70.5 h [%]
COc1cccc(NC(=O)NCc2cnn(C)c2)c1 | -7.74
CCOc1ccc(C(=O)Nc2ccn(CC)n2)cc1 | -1.03
O=C(Cn1nc(C(F)(F)F)c(Br)c1C1CC1)N1CCOCC1 | -5.88
Cc1nn(CCC(=O)NC2CCS(=O)(=O)C2)c(C)c1Br (configuration not stated) | -0.845
O=C(NCCCN1CCOCC1)c1ccn(COc2ccccc2)n1 | -7.55
O=C(NCCN1CCOCC1)c1ccn(COc2ccc(F)cc2)n1 | -5.85
O=C(NCCCN1CCOCC1)c1ccn(COc2ccc(F)cc2)n1 | -6.88
CC(C(=O)Nc1ccc(Cl)cn1)n1ccc(C(F)(F)F)n1 (configuration not stated) | 1.33
CC(C(=O)Nc1ccon1)n1ccc(C(F)(F)F)n1 (configuration not stated) | 15.3
Cc1csc(NC(=O)C(C)Oc2ccc3c(c2)OCO3)n1 (configuration not stated) | -9.39
Cc1nn(Cc2ccc(C(=O)NCCCN3CCOCC3)o2)c(C)c1Cl | 24.8
CCC/N=c1/c(NC(=O)NCCOC)c(O)oc2ccccc12 | 25.8
Cc1nn(C)cc1CN(C)C(=O)c1ccccn1 | 1.81
Cc1nn(C)cc1CN(C)C(=O)c1ccncc1 | 2.69
CCn1cc(Cl)c(C(=O)NCCCO)n1 | -3.76
COc1ccc(N2CCN(C(=O)C(C)n3cc(Br)cn3)CC2)cc1 (configuration not stated) | -1.02
CC1CCN(C(=O)C(C)n2cc(Br)cn2)CC1 (configuration not stated) | -3.34
Cc1ccc(C(=O)Nc2nn[nH]n2)s1 | -0.43
O=C(Nc1cnn(COc2ccc(F)cc2Cl)c1)C1CC1 | 9.89
CC(=O)Nc1ccn(Cc2ccccc2)n1 | -12.2
COc1cccc(-c2cc(C(=O)NCCCn3nc(C)cc3C)[nH]n2)c1 | -1.83
CSc1[nH]nc(NC(=O)c2ccccc2)c1C#N | -10
CSc1[nH]nc(NC(=O)c2cccnc2)c1C#N | -5.13

Structure (SMILES) | cytotoxicity at 70.5 h [%]
Cc1nn(Cn2ccc(C(=O)N3CCCC3)n2)c(C)c1Cl | -9.33
Cc1nn(Cn2ccc(C(=O)N3CCCCCC3)n2)c(C)c1Cl | -11.3
CC(Cn1cc(Br)cn1)C(=O)Nc1ccn(C)n1 (configuration not stated) | 7.88
CCCNC(=O)c1nn(CC)cc1NC(=O)c1c(C)nn(C)c1C | -11.3
CCn1cc(CNC(=O)c2nn(CC)cc2Br)cn1 | 8.71
Cc1cc(C(F)(F)F)nn1CC(C)C(=O)Nc1ccccn1 (configuration not stated) | -12.5
CCOc1ccc(NC(C)=O)cc1S(=O)(=O)Nc1nnc(C)s1 | -10.8
CC(=O)c1cccc(S(=O)(=O)NCCNC(=O)c2snnc2C)c1 | 7.7
COCCCNC1N=C(n2nc(C)cc2C)Nc2sc3c(c21)CCCC3 (configuration not stated) | 8.46
COc1ccc(OC)c(C(C)NC(=O)c2nn(C)c(C)c2Br)c1 (configuration not stated) | 27.1
CCCN(C(=O)CCS(=O)(=O)Cc1ccccc1)c1cccc(C)c1 | -4.29
CCn1cc(CN(C)C(=O)c2cc(C(F)(F)F)n(C)n2)cn1 | -7.42
COc1cccc(-c2cc(C(=O)N3N=C(C)CC3(O)C(F)F)[nH]n2)c1 (configuration not stated) | -11
CCn1ccc(-c2nnc(SCC(=O)NCC(C)C)n2CC)n1 | -10.3
Cc1nn(CCC(=O)N(C)Cc2c(Cl)cnn2C)cc1Br | -14.9
Cn1cc(S(=O)(=O)N2CCN(S(=O)(=O)c3ccc(Br)s3)CC2)cn1 | -8.9
Cc1nn(CCCNC(=O)C2CCN(S(C)(=O)=O)CC2)cc1Br | -4.82
O=C(c1ccc(COc2ccc(Cl)cc2)o1)N1N=CCC1(O)C(F)(F)F (configuration not stated) | 10.7
COc1cccc(Cn2cc(N3C(=O)[C@H]4CCCC[C@H]4C3=O)cn2)c1 | 26.3
COC(=O)c1ccnn1COc1ccc(Cl)cc1 | 28.1
Cc1cc(C)cc(OCn2ccc(C(=O)O)n2)c1 | -10.3
Cc1nn(C)c2nc(O)cc(C(F)(F)C(F)(F)F)c12 | 0.0459
Cn1nc(C(=O)N2CCOCC2)cc1C(=O)Nc1cc(Cl)cc(Cl)c1 | -0.911

Structure (SMILES) | cytotoxicity at 70.5 h [%]
Cn1c(=O)n(C)c2nc(Cl)c(CC(=O)c3ccccc3)n2c1=O | -4.74
CCOc1ccc(N2CCCN=C2NC(=O)c2ccc(OC)cc2)cc1 | -9.82
CN1CC(Oc2ccccc2)=NC(SCC(=O)c2ccccc2)=N1 | -0.583
CCC(=O)N1CCN(c2ncnc3cc4c(cc23)OCCO4)CC1 | -4.42
Cc1nc(N2CCN(C(=O)c3ccccn3)CC2)c2c(n1)c(C)nn2C | -8.87
CCC(=O)N1CCN(c2nc(C)nc3c(C)nn(C)c23)CC1 | -6.94
Cc1nn(Cn2ccc(C(=O)N3CCOCC3)n2)c(C)c1Cl | -9.86
COCCNc1ccc(CC2CCCN(Cc3c[nH]cn3)C2)nn1 (configuration not stated) | -0.712
Cc1noc(C)c1C(=O)N1CCCC1(C)C(=O)NC1CCCC1 (configuration not stated) | -10.2
Cc1ccccc1CN1CCCC1c1cncc(Nc2nncs2)n1 (configuration not stated) | -13.3
COCC(=O)N1CC(c2ccnc(Nc3cc(C(F)(F)F)ccn3)n2)C1 | 10.3
CNC(=O)C1(C)CN(c2nc(C)cc(C)n2)CCO1 (configuration not stated) | 1.44
CNC(=O)c1cnn2c(C3CCCN3C)ccnc12 (configuration not stated) | 12.8
CNC(=O)c1cnn2c(C3CCCN3)ccnc12 (configuration not stated) | 6.37
O=C(CO)N1CCC(c2ccnc(Nc3cc(C(F)(F)F)ccn3)n2)C1 (configuration not stated) | -3.68
CCc1nnc(Nc2cc(C)nc(C3CCN(c4cnccn4)C3)n2)s1 (configuration not stated) | -15.3
CC(=O)N[C@@H]1CN(S(=O)(=O)c2ccc(Cl)cc2)C[C@H]1O | -7.41
Cc1cc(Nc2ncccn2)nc(C2CCCN(CCO)C2)n1 (configuration not stated) | -9.85
O=C1CCC[C@]2(CN(S(=O)(=O)N3CCCCC3)C[C@H]2c2cccnc2)N1 | -6.21
O=C(CCc1cccc(C2CCNCC2)n1)N1CCCCC1 | -12.2
NCC(=O)N1CCC(c2ccnc(Nc3cc(C(F)(F)F)ccn3)n2)C1 (configuration not stated) | 16.8
O=C(NCc1cncc2c1CCN(Cc1ccccc1)C2)C1CC1 | 9.59
CS(=O)(=O)NCc1cncc2c1CCN(CC1CCOC1)C2 (configuration not stated) | 2.49

Structure (SMILES) | cytotoxicity at 70.5 h [%]
Cc1cc(C(=O)N2CCC3(CC2)CC(c2cccnc2)C(=O)N3C)no1 (configuration not stated) | 1.74
CCN(C)c1ncnc2c1CCN(C(=O)c1cnccn1)CC2 | -12.8
Cc1ccc(CN2CC(C(=O)NCC3CC3)C3(CCOCC3)C2)s1 (configuration not stated) | -7.98
Cc1ccc(CN2CC(C(=O)NC(C)C)C3(CCOCC3)C2)s1 (configuration not stated) | -11.4
CC(C)N1CCC2(C=C(C(=O)N(C)C)c3ccccc32)CC1 | -16.2
Cc1ncnc2c1CCN(C(=O)c1ccncc1)CC2 | 8.77
CCOCC1CN(S(=O)(=O)N(C)C)Cc2cnn(CC3CC3)c21 (configuration not stated) | 2.18
COc1ccc(CN2CC[C@H]3CO[C@H](CNC(=O)N(C)C)[C@H]3C2)cc1 | -7.9
COCC(=O)N1CCC(c2nc3ccc(-c4ccncc4)cn3n2)CC1 | -6.45
COCCN1CCC(c2nc3ccc(N4CCCC4)cn3n2)CC1 | -8.32
Cn1nnc2c1C(COCc1ccccn1)CN(C(=O)c1ccsc1)C2 (configuration not stated) | -6.33
Cn1cc(CN2CC[C@H]3O[C@@H](C(=O)NC4CC4)CC[C@H]32)cn1 | -1.4
CN(Cc1ccco1)C[C@H]1OC[C@@H]2CCN(Cc3ccsc3)C[C@@H]21 | -7.38
CC(C)Nc1nc2c(cc1C(=O)NCC1CC1)CCN(C)CC2 | -8.36
Cc1ccc(CN2CC[C@H]3CO[C@H](CN(C)Cc4ccco4)[C@H]3C2)s1 | 4.82
Cc1nnc(N2C[C@H](Oc3ccccn3)[C@H]3OCCC[C@H]32)s1 | 8.06
CCN(CC)CC1CN(Cc2ccc(C)s2)Cc2nccn2C1 (configuration not stated) | -7.85
Cc1cccc(CO[C@H]2CN(c3nnc(C)s3)[C@@H]3CCCO[C@H]23)n1 | 0.219
CN(Cc1ccco1)C[C@H]1OC[C@@H]2CCN(Cc3ccncc3)C[C@@H]21 | 15.7
CCn1[nH]c(C)c2c(C(F)(F)F)cc(=O)nc1-2 | -4.81
